Drawing on ChEMBL document CHEMBL1201862, “PubChem BioAssay data set” (2004), this text covers AC50, IC50 and EC50 for 25 molecules.

Activity calls are given as the source filed them.

What is called AC50 is the concentration at which the activity in the assay is half-maximal. A word on the IC50: it is the concentration at which inhibition is half-maximal. A word on the EC50: it is the midpoint of the concentration-response curve.

One assay concerns HeLa. Nature of the assay: HeLa cell cytotoxicity, dose response, cytotoxicity control for MITF activator project, CellTiter-Glo luminescence, cherry-pick samples (AID 540259). The settings on record: Homo sapiens. The class given is functional, cell-based.
The next assay has as its system Escherichia coli. Nature of the assay: microbe, parasite or virus in culture.
The target of a further assay is T1, Cytochrome P450 1A2 (Homo sapiens, UniProt P05177).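 Also: PubChem cytochrome P450 panel assay, CYP1A2 panel member.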
T1 sequence (P05177 whole entry): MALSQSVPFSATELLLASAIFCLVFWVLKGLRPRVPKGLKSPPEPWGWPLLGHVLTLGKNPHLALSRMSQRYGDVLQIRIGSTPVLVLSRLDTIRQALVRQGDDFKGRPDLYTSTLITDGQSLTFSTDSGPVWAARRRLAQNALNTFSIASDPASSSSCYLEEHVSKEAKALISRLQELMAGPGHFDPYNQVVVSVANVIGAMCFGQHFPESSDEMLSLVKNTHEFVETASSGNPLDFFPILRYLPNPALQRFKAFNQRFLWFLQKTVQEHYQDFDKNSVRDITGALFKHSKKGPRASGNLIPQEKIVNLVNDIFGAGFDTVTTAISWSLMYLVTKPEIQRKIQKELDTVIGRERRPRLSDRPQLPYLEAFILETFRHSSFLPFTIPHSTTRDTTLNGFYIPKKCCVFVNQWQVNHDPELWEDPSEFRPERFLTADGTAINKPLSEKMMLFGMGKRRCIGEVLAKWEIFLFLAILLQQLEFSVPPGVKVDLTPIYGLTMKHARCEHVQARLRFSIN

The target of another assay is Phospholipase A2 (Homo sapiens, UniProt P04054). The class given is functional.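 Also: confirmatory dose-response counterscreen on phospholipase A2, testing hits that came from an ultra-high-throughput screen for ATG4B inhibitors.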
Another assay deals with T2, Cysteine protease ATG4B (Homo sapiens, UniProt Q9Y4P1).
T2 sequence (Q9Y4P1 whole entry): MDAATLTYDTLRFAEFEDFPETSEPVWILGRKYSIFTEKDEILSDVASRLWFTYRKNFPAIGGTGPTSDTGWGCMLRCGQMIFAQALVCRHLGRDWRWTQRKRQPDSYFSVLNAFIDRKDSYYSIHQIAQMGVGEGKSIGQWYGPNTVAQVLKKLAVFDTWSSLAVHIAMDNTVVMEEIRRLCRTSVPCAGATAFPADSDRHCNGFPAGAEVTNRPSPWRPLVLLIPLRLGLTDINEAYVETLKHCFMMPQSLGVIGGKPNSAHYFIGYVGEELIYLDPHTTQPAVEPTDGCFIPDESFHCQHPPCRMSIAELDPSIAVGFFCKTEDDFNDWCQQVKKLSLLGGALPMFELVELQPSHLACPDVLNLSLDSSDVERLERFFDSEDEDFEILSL
It is filed as functional.

Assay [1] addresses T3, Cytochrome P450 3A4 (Homo sapiens, UniProt P08684). The settings on record: Potency.
Assay [2] has as its target Voltage-gated inwardly rectifying potassium channel KCNH2 (Homo sapiens, UniProt Q12809). Conditions: Potency.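 Also: confirmatory quantitative high-throughput screen measuring inhibition of hERG channel activity.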
Assay [3] addresses 5-hydroxytryptamine receptor 5A (Homo sapiens, UniProt P47898). Nature of the assay: Counterscreen for agonists of OPRM1-OPRD1 heterodimerization: luminescence-based cell-based high throughput dose response assay to identify agonists of 5-hydroxytryptamine (serotonin) 5A receptor (HTR5A). [Related pubchem assays (depositor defined):AID504326, AID504355, AID504692, AID504904, AID504905]. The class given is functional. (A counterscreen serves to expose hits that act by an unwanted route or on another target.)

Assay [4] has as its target Delta-type opioid receptor (Homo sapiens, UniProt P41143). The assay is described as follows: Counterscreen for agonists of heterodimerization of the mu 1 (OPRM1) and delta 1 (OPRD1) opioid receptors: Luminescence-based cell-based high throughput dose response assay to identify agonists of OPRD1 homodimerization. [Related pubchem assays (depositor defined):AID504326, AID504355, AID504692, AID504904, AID504905]. It is filed as functional.

Assay [5] deals with T4, Short transient receptor potential channel 4 (Mus musculus, UniProt Q9QUQ5).
T4 sequence (Q9QUQ5 whole entry): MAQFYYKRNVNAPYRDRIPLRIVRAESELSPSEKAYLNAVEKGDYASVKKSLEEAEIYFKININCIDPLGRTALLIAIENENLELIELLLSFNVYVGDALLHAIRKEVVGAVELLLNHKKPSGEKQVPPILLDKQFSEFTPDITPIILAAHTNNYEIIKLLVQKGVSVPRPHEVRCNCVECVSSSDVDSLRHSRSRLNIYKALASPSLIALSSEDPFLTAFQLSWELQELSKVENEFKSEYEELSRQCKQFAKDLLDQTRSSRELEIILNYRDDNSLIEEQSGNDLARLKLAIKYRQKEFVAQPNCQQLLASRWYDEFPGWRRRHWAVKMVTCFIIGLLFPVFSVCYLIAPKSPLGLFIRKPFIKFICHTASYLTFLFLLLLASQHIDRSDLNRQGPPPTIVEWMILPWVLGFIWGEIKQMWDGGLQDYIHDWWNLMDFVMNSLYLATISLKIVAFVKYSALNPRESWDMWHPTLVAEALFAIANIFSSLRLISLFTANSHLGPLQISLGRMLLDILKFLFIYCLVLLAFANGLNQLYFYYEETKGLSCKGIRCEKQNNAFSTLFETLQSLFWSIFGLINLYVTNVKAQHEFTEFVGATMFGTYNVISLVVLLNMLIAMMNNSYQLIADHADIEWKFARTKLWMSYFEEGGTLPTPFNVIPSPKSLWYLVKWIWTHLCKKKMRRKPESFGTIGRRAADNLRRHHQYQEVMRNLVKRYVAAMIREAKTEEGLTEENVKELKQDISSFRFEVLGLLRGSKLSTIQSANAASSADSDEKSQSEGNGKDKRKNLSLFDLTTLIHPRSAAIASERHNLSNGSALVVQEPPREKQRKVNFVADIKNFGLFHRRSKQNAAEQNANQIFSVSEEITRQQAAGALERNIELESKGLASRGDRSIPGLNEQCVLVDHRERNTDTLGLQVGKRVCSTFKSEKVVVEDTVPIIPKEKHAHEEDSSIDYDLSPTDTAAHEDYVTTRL
Nature of the assay: mouse TRPC4 channel activators, dose response, cell-based, HEK293 TRPC4/mu-opioid, Fluo-4 calcium (AID 434937). The class given is functional.

In another assay the target is Mu-type opioid receptor (Homo sapiens, UniProt P35372). The assay is described as follows: Counterscreen for agonists of heterodimerization of the mu 1 (OPRM1) and delta 1 (OPRD1) opioid receptors: Luminescence-based cell-based high throughput dose response assay to identify agonists of OPRM1 homodimerization. The class given is functional.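 Also: U2OS cells expressing OPRM1 and beta-arrestin as split beta-galactosidase partners.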
The target of assay [6] is Dual specificity tyrosine-phosphorylation-regulated kinase 1A (Rattus norvegicus, UniProt Q63470). It is filed as biochemical, Homo sapiens.
The nature of assay [7]: cells. The class given is functional, cell-based.
Assay [8] is described as follows: cells. It is filed as functional, cell-based. The source holds these as a separate data set.
The next assay has as its target Cytochrome P450 2D6 (Homo sapiens, UniProt P10635).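 Also: CYP2D6 member of a cytochrome P450 panel assay.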
In assay [9] the target is T3, Cytochrome P450 3A4.
The target of the next assay is Cytochrome P450 2C9 (Homo sapiens, UniProt P11712).
Assay [10] can be described thus: cytotoxicity in HEK-293T cells, dose response, cytotoxicity control for TCR NF-kB inhibitor project, luminescence, T-cell screen hits (AID 489026).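 Also: cells exposed to compound about 14 hours before the viability readout.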 The class given is functional, cell-based.
Assay [11] in a line: inhibitors of intracellular T. cruzi replication, confirmation, NIH3T3 host cells, beta-gal luminescence (AID 2044).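 Also: intracellular parasites grown in NIH/3T3 mouse fibroblasts as host cells; luminescent beta-galactosidase reporter signal from transgenic T. cruzi replicating inside host cells; inhibitors lower the luminescence signal.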 It is filed as functional, cell-based.
The target in the next assay is Large T antigen (Simian virus 40, UniProt P03070). It is filed as functional, Betapolyomavirus macacae.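 Also: Confirmatory-stage PubChem screen for compounds that inhibit SV40 T antigen.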
The nature of assay [12]: cytotoxicity toward NIH3T3 fibroblasts, dose response, counter-screen, cell-based, ATP luminescence, mouse fibroblasts (AID 2010).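 Also: cells exposed to compound for about 90 hours before reading.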 It is filed as functional.

Sequence of Voltage-gated inwardly rectifying potassium channel KCNH2 (Q12809 whole entry): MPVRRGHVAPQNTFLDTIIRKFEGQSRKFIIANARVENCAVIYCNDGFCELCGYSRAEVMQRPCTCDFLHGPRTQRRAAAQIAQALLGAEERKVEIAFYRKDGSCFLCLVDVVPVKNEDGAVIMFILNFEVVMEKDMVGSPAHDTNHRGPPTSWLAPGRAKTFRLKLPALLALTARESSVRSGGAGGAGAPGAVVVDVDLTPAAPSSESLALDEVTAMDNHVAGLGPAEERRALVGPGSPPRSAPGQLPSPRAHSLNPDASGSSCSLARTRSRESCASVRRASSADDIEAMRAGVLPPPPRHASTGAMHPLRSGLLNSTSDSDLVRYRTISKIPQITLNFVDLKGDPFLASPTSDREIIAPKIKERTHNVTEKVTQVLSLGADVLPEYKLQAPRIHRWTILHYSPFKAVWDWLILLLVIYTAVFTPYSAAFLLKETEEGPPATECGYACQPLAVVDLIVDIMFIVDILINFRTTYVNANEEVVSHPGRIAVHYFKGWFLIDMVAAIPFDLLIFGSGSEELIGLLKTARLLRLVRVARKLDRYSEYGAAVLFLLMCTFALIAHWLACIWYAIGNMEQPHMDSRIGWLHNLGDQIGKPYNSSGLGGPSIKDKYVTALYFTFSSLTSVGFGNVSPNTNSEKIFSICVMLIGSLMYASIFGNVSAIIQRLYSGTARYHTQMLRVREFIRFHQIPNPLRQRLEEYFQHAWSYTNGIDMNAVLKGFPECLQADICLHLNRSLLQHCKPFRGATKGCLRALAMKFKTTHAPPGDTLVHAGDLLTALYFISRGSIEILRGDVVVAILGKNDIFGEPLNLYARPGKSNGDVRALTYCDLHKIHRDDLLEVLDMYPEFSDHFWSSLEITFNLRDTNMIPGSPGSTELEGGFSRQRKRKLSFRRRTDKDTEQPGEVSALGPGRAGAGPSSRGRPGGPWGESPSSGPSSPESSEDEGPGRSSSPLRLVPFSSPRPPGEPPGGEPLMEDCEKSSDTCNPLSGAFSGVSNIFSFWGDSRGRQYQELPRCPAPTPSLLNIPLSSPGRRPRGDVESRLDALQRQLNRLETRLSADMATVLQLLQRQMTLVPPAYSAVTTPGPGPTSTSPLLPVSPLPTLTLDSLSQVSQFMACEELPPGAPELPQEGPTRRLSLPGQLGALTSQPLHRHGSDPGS
T3 sequence (P08684 whole entry): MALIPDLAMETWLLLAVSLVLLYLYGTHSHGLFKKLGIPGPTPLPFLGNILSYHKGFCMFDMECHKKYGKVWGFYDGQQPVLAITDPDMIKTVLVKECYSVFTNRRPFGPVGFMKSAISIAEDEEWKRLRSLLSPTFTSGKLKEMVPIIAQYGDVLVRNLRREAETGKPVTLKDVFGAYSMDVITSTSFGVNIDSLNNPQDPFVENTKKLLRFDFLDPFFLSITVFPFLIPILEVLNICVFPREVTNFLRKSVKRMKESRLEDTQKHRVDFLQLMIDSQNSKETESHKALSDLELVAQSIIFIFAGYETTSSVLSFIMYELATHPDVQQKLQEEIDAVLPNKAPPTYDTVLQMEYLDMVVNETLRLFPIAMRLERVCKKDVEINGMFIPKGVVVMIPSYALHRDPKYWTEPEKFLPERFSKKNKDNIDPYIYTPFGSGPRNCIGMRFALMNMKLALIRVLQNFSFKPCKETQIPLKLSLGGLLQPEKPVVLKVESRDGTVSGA
Sequence of Delta-type opioid receptor (P41143 whole entry): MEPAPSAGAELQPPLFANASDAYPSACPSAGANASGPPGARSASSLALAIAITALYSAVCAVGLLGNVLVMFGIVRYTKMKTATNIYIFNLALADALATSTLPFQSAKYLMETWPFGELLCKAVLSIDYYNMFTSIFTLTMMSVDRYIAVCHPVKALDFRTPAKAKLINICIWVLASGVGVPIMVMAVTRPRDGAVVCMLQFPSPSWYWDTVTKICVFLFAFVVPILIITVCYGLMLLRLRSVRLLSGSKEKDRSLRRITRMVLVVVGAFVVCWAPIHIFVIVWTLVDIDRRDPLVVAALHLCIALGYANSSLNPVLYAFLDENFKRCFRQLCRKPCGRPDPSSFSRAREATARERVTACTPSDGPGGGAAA
Sequence of 5-hydroxytryptamine receptor 5A (P47898 whole entry): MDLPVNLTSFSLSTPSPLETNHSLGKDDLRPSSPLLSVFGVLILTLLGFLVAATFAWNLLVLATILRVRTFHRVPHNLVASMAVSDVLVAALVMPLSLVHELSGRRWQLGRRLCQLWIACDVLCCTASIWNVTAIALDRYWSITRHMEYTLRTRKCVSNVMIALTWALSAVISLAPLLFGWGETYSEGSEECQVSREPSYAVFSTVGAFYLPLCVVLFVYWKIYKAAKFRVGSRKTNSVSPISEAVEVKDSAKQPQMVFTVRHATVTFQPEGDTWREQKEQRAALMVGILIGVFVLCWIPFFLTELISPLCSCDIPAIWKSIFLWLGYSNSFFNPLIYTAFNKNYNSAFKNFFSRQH
Sequence of Mu-type opioid receptor (P35372 whole entry): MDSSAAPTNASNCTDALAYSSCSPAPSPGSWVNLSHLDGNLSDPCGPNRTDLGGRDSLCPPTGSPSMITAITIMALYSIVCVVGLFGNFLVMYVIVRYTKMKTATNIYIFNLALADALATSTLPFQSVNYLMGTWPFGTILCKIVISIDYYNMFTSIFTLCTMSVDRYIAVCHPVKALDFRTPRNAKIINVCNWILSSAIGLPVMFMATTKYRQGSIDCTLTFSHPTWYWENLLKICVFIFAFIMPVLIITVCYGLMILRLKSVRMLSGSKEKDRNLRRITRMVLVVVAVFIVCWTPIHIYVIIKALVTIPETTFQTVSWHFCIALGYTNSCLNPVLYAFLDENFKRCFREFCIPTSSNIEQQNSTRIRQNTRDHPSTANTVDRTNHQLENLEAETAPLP
Sequence of Phospholipase A2 (P04054 whole entry): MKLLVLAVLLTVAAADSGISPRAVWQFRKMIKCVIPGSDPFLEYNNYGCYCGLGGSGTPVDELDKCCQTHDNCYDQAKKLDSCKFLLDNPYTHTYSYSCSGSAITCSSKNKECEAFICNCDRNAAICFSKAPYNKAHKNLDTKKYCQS
Sequence of Cytochrome P450 2D6 (P10635 whole entry): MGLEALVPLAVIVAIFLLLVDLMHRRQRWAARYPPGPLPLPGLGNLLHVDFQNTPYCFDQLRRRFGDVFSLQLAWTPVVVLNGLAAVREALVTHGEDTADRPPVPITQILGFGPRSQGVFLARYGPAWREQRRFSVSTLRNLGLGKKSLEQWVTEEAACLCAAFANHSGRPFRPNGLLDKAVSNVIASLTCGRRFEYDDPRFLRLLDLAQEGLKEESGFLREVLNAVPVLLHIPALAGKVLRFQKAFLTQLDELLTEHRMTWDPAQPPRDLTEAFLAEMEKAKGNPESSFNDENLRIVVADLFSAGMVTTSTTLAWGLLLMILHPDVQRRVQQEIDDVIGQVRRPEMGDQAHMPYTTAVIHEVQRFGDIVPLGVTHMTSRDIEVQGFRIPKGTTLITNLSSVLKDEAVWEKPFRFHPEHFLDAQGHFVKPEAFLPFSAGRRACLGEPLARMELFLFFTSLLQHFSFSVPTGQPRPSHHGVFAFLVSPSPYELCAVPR
Sequence of Cytochrome P450 2C9 (P11712 whole entry): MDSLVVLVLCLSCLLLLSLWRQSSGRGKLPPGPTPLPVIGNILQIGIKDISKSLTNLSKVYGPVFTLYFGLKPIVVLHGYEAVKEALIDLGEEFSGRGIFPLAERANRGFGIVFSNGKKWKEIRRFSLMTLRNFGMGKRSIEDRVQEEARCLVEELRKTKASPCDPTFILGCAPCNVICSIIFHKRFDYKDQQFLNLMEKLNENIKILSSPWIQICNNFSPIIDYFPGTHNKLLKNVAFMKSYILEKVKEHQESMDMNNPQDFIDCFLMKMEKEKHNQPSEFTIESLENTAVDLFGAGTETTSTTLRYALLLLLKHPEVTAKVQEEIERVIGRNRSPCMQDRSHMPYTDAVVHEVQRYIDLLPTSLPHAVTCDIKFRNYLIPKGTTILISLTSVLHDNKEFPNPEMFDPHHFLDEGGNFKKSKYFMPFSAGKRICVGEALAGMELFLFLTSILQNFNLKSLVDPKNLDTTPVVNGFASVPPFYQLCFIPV
Sequence of Large T antigen (P03070 whole entry): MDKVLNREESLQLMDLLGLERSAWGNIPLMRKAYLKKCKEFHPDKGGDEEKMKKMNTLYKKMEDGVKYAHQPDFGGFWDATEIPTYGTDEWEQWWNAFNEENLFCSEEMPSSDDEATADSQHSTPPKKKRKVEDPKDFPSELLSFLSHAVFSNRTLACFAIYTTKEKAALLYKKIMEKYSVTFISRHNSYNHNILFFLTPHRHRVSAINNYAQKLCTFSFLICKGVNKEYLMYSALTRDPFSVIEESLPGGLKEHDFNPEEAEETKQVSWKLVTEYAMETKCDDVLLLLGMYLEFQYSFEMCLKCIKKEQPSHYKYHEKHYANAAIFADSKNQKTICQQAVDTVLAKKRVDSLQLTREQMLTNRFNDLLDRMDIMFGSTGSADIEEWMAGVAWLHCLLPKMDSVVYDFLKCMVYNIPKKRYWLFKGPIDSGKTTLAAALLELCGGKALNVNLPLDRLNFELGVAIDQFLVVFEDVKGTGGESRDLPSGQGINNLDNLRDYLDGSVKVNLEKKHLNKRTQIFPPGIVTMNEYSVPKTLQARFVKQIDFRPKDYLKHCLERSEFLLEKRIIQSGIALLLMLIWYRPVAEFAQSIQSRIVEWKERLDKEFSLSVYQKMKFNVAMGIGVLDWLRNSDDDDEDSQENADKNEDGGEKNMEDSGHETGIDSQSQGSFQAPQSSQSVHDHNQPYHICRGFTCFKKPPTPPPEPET

As for `CCn1c(/C=C/c2c[nH]c3ccccc23)nc2ccccc2c1=O`, in the assay on HeLa, the AC50 is 50.7 µM (active).

On to `c1ccc(-c2ccc(-c3cnc4n3CCCCC4)cc2)cc1`, for which the concentration at half-maximal activity (AC50) with HeLa is 37.5 µM (active).

With `CCOc1ccc(Nc2nc(O)c3c(n2)CCCC3)cc1`, the AC50 in the assay with Escherichia coli is 31.7 µM (active).

On to `O=C(Nc1ccc2c(c1)CCC2)c1c(F)cccc1Cl`, for which the AC50 in the assay with HeLa is > 350 µM (inactive).

Regarding `COc1ccccc1C(=O)Nc1ccc2c(C)cc(=O)oc2c1`, the AC50 in the assay with HeLa was 51.7 µM (active).

As to `Cc1ccc(OCCNC(=O)c2cc(-n3cnnc3)ccc2Cl)cc1C`, the concentration at half-maximal activity (AC50) is 51 µM (active) with Escherichia coli and 28.2 µM (inconclusive) on Cytochrome P450 1A2.

On to `COC(=O)c1ccc(CNC(=O)C2CCC(=O)N(Cc3ccccn3)C2)cc1` (centres undefined), for which, in the assay on Escherichia coli, the AC50 is 131 µM (active).

With `Cc1cccc(N=C(S)Nc2ccc(Oc3ccccc3)cc2)n1`, the values for the half-inhibitory concentration (IC50) on Phospholipase A2 and at Cysteine protease ATG4B were 16.8 µM (active) and 22.5 µM (inactive), respectively.

As to `CCCCOCCOP(=O)(OCCOCCCC)OCCOCCCC`, the AC50 is 25.1 µM (inconclusive) on Cytochrome P450 3A4 [1] and 50.1 µM (inconclusive) in assay [2].

For `O=C(c1sc2ccccc2c1Cl)N(Cc1ccco1)C1CCS(=O)(=O)C1` (centres undefined), the EC50 is > 92.5 µM (inactive) in assay [3], 29.2 µM (inactive) in [4], 2.11 µM (active) in assay [5] and > 92.5 µM (inactive) on Mu-type opioid receptor.

Regarding `COc1ccc(C(CNc2ncnc3sc(C)c(C)c23)N(C)C)cc1` (centres undefined), the EC50 was > 92.4 µM (inactive) in assay [3], 70.5 µM (inactive) in [4], 0.473 µM (active) in assay [5] and > 92.4 µM (inactive) at Mu-type opioid receptor.

Consider `Cc1cccc2c1N(CCOc1ccc(C(C)(C)C)cc1)C(=O)C2=O`, for which the values for the IC50 at Phospholipase A2 and at Cysteine protease ATG4B were 4.75 µM (active) and 5.76 µM (active), respectively.

In the case of `O=C(Nc1ccc(O)cc1)c1c(O)nc2c(c1O)CCCC2`, the AC50 with HeLa is 76 µM (active).

`COC(=O)C1CCc2c(ccc3c2CCCC3)C1=O` (centres undefined): in the assay with HeLa, the AC50 was > 350 µM (inactive).

In the case of `O=C(COC(=O)/C=C/c1ccc(F)cc1)Nc1nnc(-c2ccccc2)o1`, in the assay on Escherichia coli, the AC50 was 23.2 µM (active).

Take `COc1cc2c3c(c1OC)Oc1ccc(cc1)C[C@H]1c4c(cc(OC)c(OC)c4Oc4ccc(cc4)C[C@@H]3N(C)CC2)CCN1C`: the AC50 in the assay on Escherichia coli was 25.2 µM (active).

For `Cc1noc(C)c1COC(=O)c1cccc(S(=O)(=O)N2CCOCC2)c1`, the AC50 with Escherichia coli is 44.7 µM (active).

With `CC(C)(C)c1ccc(OCC2CO2)cc1` (centres undefined), the AC50 in assay [2] was 12.6 µM (inconclusive).

Consider `COc1ccc2[nH]c(C(=O)N/N=C/c3ccccc3OC)cc2c1`, for which the AC50 in assay [6] is 2.17 µM (active). Further, the concentration giving a half-maximal response (EC50) in the assay “cells [7]” and in “cells [8]” was > 350 µM (not active) each time.

`O=C(N[C@@H](Cc1ccccc1)C(=O)CCl)OCc1ccccc1`: the AC50 on Cytochrome P450 2D6 is 39.8 µM (inconclusive); on Cytochrome P450 3A4 [9] it was 1.26 µM (inconclusive); at Cytochrome P450 2C9, 12.6 µM (inconclusive); in assay [2] it was 25.1 µM (inconclusive). The IC50 in assay [10] is > 80 µM (inactive).

As for `Oc1ccc(/C=N/n2c(S)nnc2COc2ccccc2)c(O)c1`, the AC50 in assay [6] was 0.796 µM (active).

In the case of `Cc1ccc(/N=c2\oc3cc(O)ccc3cc2C(N)=O)cc1`, the AC50 in assay [6] is 0.074 µM (active). The values for the EC50 in assay [11] and in assay [12] were 3.69 µM (active) and > 60 µM (not active), respectively. The IC50 at Large T antigen was 33.8 µM (active).

With `CCCN(CCC)[C@@H]1CCc2cccc(O)c2C1`, the AC50 in [2] is 15.8 µM (inconclusive).

Turning to `O=C(O)C1C2CCC(O2)C1C(=O)O` (centres undefined), in assay [2], the AC50 is 1.26 µM (inconclusive).

`ClC(Cl)(Cl)C(Cl)(Cl)Cl` [HEXACHLOROETHANE]: the AC50 in assay [2] is 39.8 µM (inconclusive).
